Experimental data published in ChEMBL document CHEMBL1131315, “Synthesis and anticonvulsant activity of 2(3H)-benzoxazolone and 2(3H)-benzothiazolone derivatives” (J Med Chem, 1998).
Calls of active or inactive are those of the source. The rule behind the calls is not given here.

Tests used:
Mus musculus [1] = assay: The anticonvulsant activity in subcutaneous pentylenetetrazole seizure test (sc Met) for 4 hr in mice; no activity or no toxicity at 300 mg/kg; format: functional, organism-based; set-up: dose 300 mg/kg
Mus musculus [2] = assay: Inhibition of s.c. pentylenetetrazole induced seizure in mice following i.p. administration.; format: functional
Sigma 2 receptor = assay: Affinity on sigma 2 receptor using [3H]- DTG as radioligand
Mus musculus [3] = assay: (§1) The compound was determined for the dose (mg/kg) by rotarod test at the time of peak neurotoxic effect in mice on ip administration.; format: functional
[4] = The compound was tested for neurologic toxicity (rotarod) test for 4 hours in mice; no activity or no toxicity at 300 mg/kg; format: organism-based; set-up: dose 300 mg/kg; conditions: mouse, in vivo
[5] = The compound was tested for time of peak effect (TPE) in hours for its toxicity in mice on ip administration.; format: organism-based; conditions: mouse, in vivo
[6] = target: Sigma non-opioid intracellular receptor 1 (Homo sapiens) (UniProt Q99720); assay: Ratio between the Ki(nM)values of sigma-2 and sigma-1; format: functional
Chain of Sigma non-opioid intracellular receptor 1 (Homo sapiens) (Q99720 whole entry): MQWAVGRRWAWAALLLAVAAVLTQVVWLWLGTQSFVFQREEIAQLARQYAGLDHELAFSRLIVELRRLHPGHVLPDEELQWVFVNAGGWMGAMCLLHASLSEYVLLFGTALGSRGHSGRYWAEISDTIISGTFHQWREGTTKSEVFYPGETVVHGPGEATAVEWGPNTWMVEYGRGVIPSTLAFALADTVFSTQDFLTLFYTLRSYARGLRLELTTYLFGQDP

[7] = The compound was tested for neurologic toxicity (rotarod) test for 30 min in mice; active at 300 mg/kg; format: organism-based; set-up: dose 300 mg/kg; conditions: mouse, in vivo, 0.5 h
Mus musculus [8] = assay: Time of peak effect in mice following i.p. administration.; format: functional
Mus musculus [9] = assay: Anticonvulsant activity in subcutaneous pentylenetetrazole seizure test for 30 min in mice; No activity/toxicity at 300 mg/kg.; format: functional, organism-based; set-up: dose 300 mg/kg
Mus musculus [10] = assay: The compound was tested to inhibit 50% of induced maximal electroshock seizure in mice on ip administration; format: functional
Mus musculus [11] = assay: The compound was tested for anticonvulsant activity in Maximal electroshock seizure test (MES) for 4 hr in mice(ip); active at 100 mg/kg; format: functional, organism-based; set-up: dose 100 mg/kg
Mus musculus [12] = assay: Anticonvulsant activity in Maximal electroshock seizure test at 100 mg/kg i.p. in mice.; format: functional, organism-based; set-up: dose 100 mg/kg
[13] = The compound was tested for neurologic toxicity (rotarod) test for 30 min in mice; no activity or no toxicity at 300 mg/kg; format: organism-based; set-up: dose 300 mg/kg; conditions: mouse, in vivo, 0.5 h
Mus musculus [14] = assay: The compound was tested for anticonvulsant activity in Maximal electroshock seizure test (MES) for 4 hr in mice(ip); no activity or toxicity at 300 mg/kg; format: functional, organism-based; set-up: dose 300 mg/kg
[15] = as §1; format: ADME, organism-based; conditions: mouse, in vivo
Mus musculus [16] = assay: The compound was tested to inhibit 50% of induced maximal electroshock seizure in mice on ip administration.; format: functional
[17] = The compound was tested for neurologic toxicity (rotarod) test for 30 min in mice; active at 100 mg/kg; format: organism-based; set-up: dose 100 mg/kg; conditions: mouse, in vivo, 0.5 h
Mus musculus [18] = assay: The compound was tested for anticonvulsant activity in Maximal electroshock seizure test for 30 min in mice(ip); active at 30 mg/kg; format: functional, organism-based; set-up: dose 30 mg/kg
Mus musculus [19] = assay: The compound was tested for anticonvulsant activity in subcutaneous pentylenetetrazole seizure test (sc Met) for 30 min in mice; active at 100 mg/kg; format: functional, organism-based; set-up: dose 100 mg/kg
[20] = The compound was tested for neurologic toxicity (rotarod) test for 4 hours in mice; active at 300 mg/kg; format: organism-based; set-up: dose 300 mg/kg; conditions: mouse, in vivo
Mus musculus [21] = assay: The compound was tested for anticonvulsant activity in Maximal electroshock seizure test (MES) for 4 hr in mice(ip); active at 300 mg/kg; format: functional, organism-based; set-up: dose 300 mg/kg
Mus musculus [22] = assay: The compound was tested for anticonvulsant activity in subcutaneous pentylenetetrazole seizure test (sc Met) for 30 min in mice; active at 300 mg/kg; format: functional, organism-based; set-up: dose 300 mg/kg
[23] = The compound was tested for neurologic toxicity (rotarod) test for 30 min in mice; active at 30 mg/kg; format: organism-based; set-up: dose 30 mg/kg; conditions: mouse, in vivo, 0.5 h

Structure (SMILES)	scMet (Mus musculus [1])	ED50 (Mus musculus [2]) [mg/kg]	Rotarod toxicity [4]	Toxicity [5] [h]	Activity (Mus musculus [8]) [h]	scMet (Mus musculus [9])	MES (Mus musculus [12])	MES (Mus musculus [14])	Rotarod toxicity [17]	further results
O=c1oc2cc(Cc3ccccc3)ccc2n1CCN1CCOCC1	No activity or no toxicity at 300 mg/kg	> 225	active at 300 mg/kg	1	1	No activity or no toxicity at 300 mg/kg	active at 100 mg/kg	–	–	Ki (Sigma 2 receptor): 515 nM; TD50 (Mus musculus [3]): 194 mg/kg; Ratio [6]: 7; Rotarod toxicity [7]: active at 300 mg/kg; ED50 (Mus musculus [10]): 87 mg/kg; MES (Mus musculus [11]): active at 100 mg/kg
CCC(=O)c1ccc2nc(O)sc2c1	No activity or no toxicity at 300 mg/kg	–	No activity or no toxicity at 300 mg/kg	–	–	No activity or no toxicity at 300 mg/kg	No activity or toxicity at 300 mg/kg	No activity or toxicity at 300 mg/kg	–	Rotarod toxicity [13]: No activity or no toxicity at 300 mg/kg
CCC(=O)c1ccc2c(c1)sc(=O)n2CCN1CCCC1	No activity or no toxicity at 300 mg/kg	> 80	active at 100 mg/kg	0.25	0.25	No activity or no toxicity at 300 mg/kg	–	active at 30 mg/kg	active at 100 mg/kg	TD50 [15]: 48.4 mg/kg; Ki (Sigma 2 receptor): 919 nM; ED50 (Mus musculus [16]): 13.9 mg/kg; MES (Mus musculus [18]): active at 30 mg/kg; Ratio [6]: 1.6
CCC(=O)c1ccc2c(c1)oc(=O)n2C	active at 100 mg/kg	–	active at 100 mg/kg	–	–	–	No activity or toxicity at 300 mg/kg	No activity or toxicity at 300 mg/kg	active at 100 mg/kg	scMet (Mus musculus [19]): active at 100 mg/kg
O=c1[nH]c2ccccc2o1 [BENZOXAZOLINONE]	No activity or no toxicity at 300 mg/kg	–	active at 300 mg/kg	–	–	No activity or no toxicity at 300 mg/kg	No activity or toxicity at 300 mg/kg	No activity or toxicity at 300 mg/kg	–	Rotarod toxicity [7]: active at 300 mg/kg
CN(C)CCn1c(=O)oc2cc(C(=O)c3ccccc3)ccc21	No activity or no toxicity at 300 mg/kg	> 120	–	0.25	0.25	No activity or no toxicity at 300 mg/kg	active at 300 mg/kg	–	–	Rotarod toxicity [20]: active at 300 mg/kg; TD50 [15]: 99 mg/kg; Ki (Sigma 2 receptor): > 10000 nM; ED50 (Mus musculus [16]): 84.4 mg/kg; Ratio [6]: > 27; MES (Mus musculus [21]): active at 300 mg/kg; Rotarod toxicity [13]: active at 300 mg/kg
CCC(=O)c1ccc2c(c1)sc(=O)n2CCN1CCOCC1	active at 300 mg/kg	> 300	active at 100 mg/kg	0.25	0.25	–	No activity or toxicity at 300 mg/kg	No activity or toxicity at 300 mg/kg	active at 100 mg/kg	TD50 (Mus musculus [3]): 239 mg/kg; ED50 (Mus musculus [16]): 62.1 mg/kg; scMet (Mus musculus [22]): active at 300 mg/kg
CCCCCc1ccc2nc(O)oc2c1	active at 100 mg/kg	80.7	active at 100 mg/kg	1	0.5	–	active at 300 mg/kg	–	active at 100 mg/kg	scMet (Mus musculus [19]): active at 100 mg/kg; TD50 [15]: 168 mg/kg; ED50 (Mus musculus [10]): 70.8 mg/kg; MES (Mus musculus [21]): active at 300 mg/kg
CCC(=O)c1ccc2c(c1)sc(=O)n2CCCN1CCCCC1	No activity or no toxicity at 300 mg/kg	–	active at 30 mg/kg	–	–	No activity or no toxicity at 300 mg/kg	–	active at 30 mg/kg	–	Rotarod toxicity [23]: active at 30 mg/kg; MES (Mus musculus [18]): active at 30 mg/kg
CCCc1ccc2nc(O)oc2c1	active at 100 mg/kg	–	–	–	–	–	active at 300 mg/kg	–	active at 100 mg/kg	scMet (Mus musculus [19]): active at 100 mg/kg; Rotarod toxicity [20]: active at 100 mg/kg; MES (Mus musculus [21]): active at 300 mg/kg
O=C(c1ccccc1)c1ccc2nc(O)oc2c1	No activity or no toxicity at 300 mg/kg	–	No activity or no toxicity at 300 mg/kg	–	–	No activity or no toxicity at 300 mg/kg	No activity or toxicity at 300 mg/kg	No activity or toxicity at 300 mg/kg	–	Rotarod toxicity [13]: No activity or no toxicity at 300 mg/kg
